Test results published in US20110077270A1, “Compositions and Methods for Treating Ocular Inflammation with Lower Risk of Increased Intraocular Pressure” (priority 2009, published 2011).
Several values for one entry are separate records, joined by “and”; a condition that tells them apart may be missing. Identical values can stand only once.

Legend:
[1] = system: rabbit paracentesis model; assay: Clinical evaluation (slit lamp clinical score), rabbit paracentesis model; type: in vivo; parameters: key to Clinical Score −180 min / Clinical Score −5 min / Clinical Score +115 min: 0: normal; 1: discrete dilatation of iris and conjunctival vessels; 2: moderate dilatation of iris and conjunctival vessels; 3: intense iridal hyperemia with flare in the anterior chamber; 4: intense iridal hyperemia with flare in the anterior chamber and presence of fibrinous exudates; conditions: for Clinical Score −5 min: 5 min before first paracentesis; for Clinical Score −5 min / Clinical Score +115 min / Clinical Score −180 min: individual eye; for Clinical Score +115 min: 5 min before second paracentesis; for Clinical Score −180 min: basal
[2] = system: PGE2 in the aqueous humor; assay: Prostaglandin E2 (PGE2) measurement in aqueous humor, rabbit paracentesis model; type: in vivo; conditions: second paracentesis; for PGE2 level in aqueous humor, Mean: group mean; for PGE2 level in aqueous humor: individual eye
Method: (§1) Each rabbit was placed in a restraint device and tagged with the alphanumeric code. The formulations were instilled (50 μl) into the conjunctival sac of both eyes 180, 120, 90 and 30 min before the first paracentesis; then 15, 30, 90 min after the first paracentesis. To perform the first paracentesis the animals were anaesthetized by intravenous injection of 5 mg/kg Zoletil® (Virbac; 2.5 mg/kg tiletamine HCl and 2.5 mg/kg zolazepam HCl) and one drop of local anesthetic (Novesina®, Novartis) was administered to the eye. Anterior chamber paracentesis was performed with a 26 G needle attached to a tuberculin syringe; the needle was introduced into the anterior chamber through the cornea, taking care not to damage the tissues. Two hours after the first paracentesis, the animals were sacrificed with 0.4 ml Tanax® (Intervet International B.V.) and the second paracentesis was performed. About 100 μl of aqueous humor were removed at the second paracentesis. Aqueous humor was immediately split in four aliquots and stored at −80° C. until analysis. Then both eyes were enucleated and the iris-ciliary body was carefully excised, placed in polypropylene tubes, and stored at −80° C. until analysis.
For the quantitative determination of PGE2 in the aqueous humor we used the PGE2 Immunoassay kit (R&D Systems; Cat. No. KGE004; Lot. No. 240010). Eleven microliters or 16 μl of aqueous humor were diluted to 110 μl or 160 μl with the calibrator diluent solution provided with the kit. One hundred microliters of samples and of standards were load into a 96-well plate and recorded in a plate layout. Samples were treated following the assay procedure described in the kit. A microplate reader (GDV, Italy; model DV 990 B/V6) set at 450 nm (wavelength correction at 540 nm) was used for making the calibration and analyzing the samples.

[3] = system: protein concentration in the aqueous humor; assay: Protein measurement in aqueous humor, rabbit paracentesis model; type: in vivo; conditions: for Protein level in aqueous humor, Mean / Protein level in aqueous humor: second paracentesis; for Protein level in aqueous humor, Mean: group mean; for Protein level in aqueous humor: individual eye
Method: as §1
For protein concentration determination in the aqueous humor we used the Protein Quantification Kit (Fluka; Cat. No. 77371; Lot. No. 1303129). Five microliters of aqueous humor were diluted to 100 μl with water. Twenty microliters of samples and of standards were load into a 96-well plate and recorded in a plate layout. Samples were treated following the assay procedure described in the kit. A microplate reader (GDV, Italy; model DV 990 B/V6) set at 670 nm was used for making the calibration and analyzing the samples.

[4] = system: leukocytes (PMN) in aqueous humor; assay: Leukocytes (PMN) measurement in aqueous humor, rabbit paracentesis model; type: in vivo; conditions: second paracentesis; for PMN numbers in aqueous humor: individual eye; for PMN numbers in aqueous humor, Mean: group mean
Method: as §1
For the determination of the number of leukocytes we used a haemocytometer (Improved Neubauer Chamber; Bright-line, Hausser Scientific) and a Polyvar 2 microscope (Reichert-Jung).

monkey TM cells = assay: Cell metabolic activity (resazurin reduction) assay in monkey TM cells; type: cell-based, rhesus monkeys (Macaca mulatta); conditions: 3 to 300 nM, end of treatment period; results not shown
Method: A modification of previously described methods^40 was employed to evaluate cell metabolic activity, an index of cell viability. After collection of CM samples, cells were briefly rinsed in modified Hanks balanced salt solution containing Ca^++ and Mg^++ (“MHBSS”), and then 0.0025% (w/v) resazurin (Sigma) in MHBSS was added to sample wells. Plates were incubated (37° C., 5% CO2, 95% humidity) for 90 minutes, after which fluorescence (Excitation 560 nm, Emission 590 nm) was read (Victor 3V Multilabel Counter, Wallac, Turku, Finland). As a positive control for decreased cellular metabolic reduction of resazurin, in each plate an additional well of vehicle control-treated cells was preincubated with 0.06% hydrogen peroxide (Fisher, Atlanta, Ga.) in MHBSS.

[5] = 0.1% topical formulation, +115 min
[6] = 0.1% topical formulation, −5 min
[7] = 0.1% topical formulation, −180 min (basal)
[8] = 0.1% topical formulation, listed as BOL
[9] = 0.5% topical formulation, listed as BOL
[10] = 0.5% topical formulation, +115 min
[11] = 1% topical formulation, listed as BOL

## C[C@@H]1C[C@H]2[C@@H]3CCC4=CC(=O)C=C[C@]4(C)[C@@]3(F)[C@@H](O)C[C@]2(C)[C@@]1(O)C(=O)CO [Dex, dexamethasone, reference compound]
[1]; 0.1% topical formulation
  Clinical Score −5 min: 0 (6×) and 1 (2×)
  Clinical Score +115 min: 1 (6×) and 3 (2×)
  Clinical Score −180 min: 0
[1]; [5]
  Percentage of eyes with clinical score 1: 75%
  Percentage of eyes with clinical score 3: 25%
[1]; [6]
  Percentage of eyes with clinical score 0: 75%
  Percentage of eyes with clinical score 1: 25%
[1]; [7]
  Percentage of eyes with clinical score 0: 100%
[2]; 0.1% topical formulation
  PGE2 level in aqueous humor, Mean: 2.263 ng/mL
  PGE2 level in aqueous humor: 2.51 ng/ml and 2.32 ng/ml (2×) and 2.10 ng/ml and 3.03 ng/ml and 1.30 ng/ml
[3]; 0.1% topical formulation
  Protein level in aqueous humor, Mean: 33.457 mg/mL
  Protein level in aqueous humor: 31.31 mg/mL and 31.81 mg/mL and 35.95 mg/mL and 37.15 mg/mL and 32.12 mg/mL and 32.40 mg/mL
[4]; 0.1% topical formulation
  PMN numbers in aqueous humor: 20 number/μl (3×) and 50 number/μl and 40 number/μl and 30 number/μl
Monkey TM cells
  Cell viability compared to vehicle controls (resazurin reduction): nor did any drug treatments result in a loss of cell viability

## Cc1ccc2c(NCC(O)(CC(C)(C)c3cc(F)cc4c3OCC4)C(F)(F)F)cccc2n1 (stereo not drawn) [BOL-303242-X]
[1]; 0.1% topical formulation
  Clinical Score −5 min: 0
  Clinical Score −180 min: 0
[1]; [8]
  Clinical Score +115 min: 2 (6×) and 3 (2×)
[1]; [5]
  Percentage of eyes with clinical score 2: 75%
  Percentage of eyes with clinical score 3: 25%
[1]; [6]
  Percentage of eyes with clinical score 0: 100%
[1]; [7]
  Percentage of eyes with clinical score 0: 100%
[1]; 0.5% topical formulation
  Clinical Score −5 min: 0
  Clinical Score −180 min: 0
[1]; [9]
  Clinical Score +115 min: 2 (5×) and 1 (3×)
[1]; [10]
  Percentage of eyes with clinical score 1: 37.5%
  Percentage of eyes with clinical score 2: 62.5%
[1]; 0.5% topical formulation, −5 min
  Percentage of eyes with clinical score 0: 100%
[1]; 0.5% topical formulation, −180 min (basal)
  Percentage of eyes with clinical score 0: 100%
[1]; 1% topical formulation
  Clinical Score −5 min: 0
  Clinical Score +115 min: 2
  Clinical Score −180 min: 0
[1]; 1% topical formulation, +115 min
  Percentage of eyes with clinical score 2: 100%
[1]; 1% topical formulation, −5 min
  Percentage of eyes with clinical score 0: 100%
[1]; 1% topical formulation, −180 min (basal)
  Percentage of eyes with clinical score 0: 100%
[2]; 0.1% topical formulation
  PGE2 level in aqueous humor, Mean: 1.452 ng/mL
[2]; [8]
  PGE2 level in aqueous humor: 1.62 ng/mL and 1.88 ng/mL and 2.15 ng/mL and 0.70 ng/mL and 1.34 ng/mL and 1.03 ng/mL
[2]; 0.5% topical formulation
  PGE2 level in aqueous humor, Mean: 1.384 ng/mL
[2]; [9]
  PGE2 level in aqueous humor: 2.31 ng/mL and 2.59 ng/mL and 0.53 ng/mL and 0.75 ng/mL and 0.80 ng/mL and 1.62 ng/mL and 1.09 ng/mL
[2]; 1% topical formulation
  PGE2 level in aqueous humor, Mean: 2.168 ng/mL
[2]; [11]
  PGE2 level in aqueous humor: 0.50 ng/mL and 1.87 ng/mL and 1.71 ng/mL and 4.04 ng/mL and 1.11 ng/mL and 3.78 ng/mL
[3]; 0.1% topical formulation
  Protein level in aqueous humor, Mean: 33.667 mg/mL
[3]; [8]
  Protein level in aqueous humor: 34.87 mg/mL and 34.41 mg/mL and 31.14 mg/mL and 22.82 mg/mL and 29.46 mg/mL and 31.69 mg/mL and 35.70 mg/mL and 49.25 mg/mL
[3]; 0.5% topical formulation
  Protein, p vs CTR: < 0.05
  Protein level in aqueous humor, Mean: 28.844 mg/mL
[3]; [9]
  Protein level in aqueous humor: 33.98 mg/mL and 33.65 mg/mL and 19.99 mg/mL and 27.11 mg/mL and 19.72 mg/mL and 36.35 mg/mL and 27.71 mg/mL and 32.24 mg/mL
[3]; 1% topical formulation
  Protein level in aqueous humor, Mean: 21.435 mg/mL
[3]; [11]
  Protein level in aqueous humor: 20.99 mg/mL and 21.48 mg/mL and 15.11 mg/mL and 20.28 mg/mL and 20.94 mg/mL and 21.89 mg/mL and 20.03 mg/mL and 30.76 mg/mL
[4]; 0.1% topical formulation
  PMN numbers in aqueous humor, Mean: 28.333 number/μl
[4]; [8]
  PMN numbers in aqueous humor: 20 number/μl (4×) and 40 number/μl and 50 number/μl
[4]; 0.5% topical formulation
  PMN numbers in aqueous humor, Mean: 21.250 number/μl
[4]; [9]
  PMN numbers in aqueous humor: 40 number/μl (2×) and 20 number/μl (3×) and 10 number/μl (3×)
[4]; 1% topical formulation
  PMN numbers in aqueous humor, Mean: 28.750 number/μl
[4]; [11]
  PMN numbers in aqueous humor: 30 number/μl (3×) and 20 number/μl (3×) and 40 number/μl (2×)
Monkey TM cells
  Cell viability compared to vehicle controls (resazurin reduction): nor did any drug treatments result in a loss of cell viability
